Data as given in patent publication US20260274833A1 (NiKang Therapeutics, Inc., priority 2022, published 2026).

Target: T1, CDK2 (Homo sapiens, UniProt P24941)
T1 construct: endogenous in cells; host or cells: OVCAR3 cells
Test: Phospho-RB measurement in OVCAR3 cells (HTRF phospho-RB cellular kit)
Format: cell-based
Details: inhibition of RB phosphorylation at S807/811 (HTRF, TR-FRET ratio 665/620), 24 h compound treatment, 0.3 to 10,000 nM
In short: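 IC50 came from a four-parameter logistic fit of the DMSO-normalized TR-FRET ratio (665/620 nm). That ratio reflects RB phosphorylation at S807/811, read with an HTRF antibody pair 4 h after adding lysate at room temperature.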

IC50 [nM] | Structure (SMILES)
2250 | CC(C)(C)c1nc(-c2cccc(NS(=O)(=O)N3CCC4(CCCC4)C3)c2F)c(-c2ccnc(NC3CCN(S(C)(=O)=O)CC3)n2)s1 [Example 169, N-(3-(2-(tert-butyl)-5-(2-((1-(methylsulfonyl)-piperidin-4-yl)amino)-pyrimidin-4-yl)thiazol-4-yl)-2-fluoro-phenyl)-2-azaspiro [4.4]nonane-2-sulfonamide]
62 | CC(C)(C)c1nc(-c2cccc(NS(=O)(=O)N3CCc4ccc(C#N)cc43)c2F)c(-c2ccnc(NC3CC4(C3)CS(=O)(=O)C4)n2)s1 [Example 170, N-(3-(2-(tert-butyl)-5-(2-((2,2-dioxido-2-thiaspiro[3.3]heptan-6-yl)amino)-pyrimidin-4-yl)thiazol-4-yl)-2-fluoro-phenyl)-6-cyano-indoline-1-sulfonamide]
2120 | CN(C)Cc1ccc2c(c1)CN(S(=O)(=O)Nc1cccc(-c3nc(C(C)(C)C)sc3-c3ccnc(NC4CCN(S(C)(=O)=O)CC4)n3)c1F)C2 [Example 171, N-(3-(2-(tert-butyl)-5-(2-((1-(methylsulfonyl)-piperidin-4-yl)amino)-pyrimidin-4-yl)thiazol-4-yl)-2-fluoro-phenyl)-5-((dimethylamino)methyl)-isoindoline-2-sulfonamide]
3170 | CNCc1cccc2c1CN(S(=O)(=O)Nc1cccc(-c3nc(C(C)(C)C)sc3-c3ccnc(NC4CCN(S(C)(=O)=O)CC4)n3)c1F)C2 [Example 172, N-(3-(2-(tert-butyl)-5-(2-((1-(methylsulfonyl)-piperidin-4-yl)amino)-pyrimidin-4-yl)thiazol-4-yl)-2-fluoro-phenyl)-4-((methylamino)methyl)-isoindoline-2-sulfonamide]
385 | CN(C1CNC1)S(=O)(=O)N1CCC(Nc2nccc(-c3sc(C(C)(C)C)nc3-c3cccc(NS(=O)(=O)N4Cc5ccccc5C4)c3F)n2)CC1 [Example 173, N-(3-(5-(2-((1-(N-(azetidin-3-yl)-N-methylsulfamoyl)piperidin-4-yl)amino)-pyrimidin-4-yl)-2-(tert-butyl)thiazol-4-yl)-2-fluorophenyl) isoindoline-2-sulfonamide]
853 | CC(C)(C)c1nc(-c2cccc(NS(=O)(=O)N3CCC4(CCC4)C3)c2F)c(-c2ccnc(NC3CCN(S(C)(=O)=O)CC3)n2)s1 [Example 174, N-(3-(2-(tert-butyl)-5-(2-((1-(methylsulfonyl)-piperidin-4-yl)amino)-pyrimidin-4-yl)thiazol-4-yl)-2-fluoro-phenyl)-6-azaspiro [3.4]octane-6-sulfonamide]
943 | CC(C)(C)c1nc(-c2cccc(NS(=O)(=O)N3CCC4(CC4)C3)c2F)c(-c2ccnc(NC3CCN(S(=O)(=O)N4CCNCC4)CC3)n2)s1 [Example 175, N-(3-(2-(tert-butyl)-5-(2-((1-(piperazin-1-ylsulfonyl)piperidin-4-yl)amino)-pyrimidin-4-yl)thiazol-4-yl)-2-fluoro-phenyl)-5-azaspiro [2.4]heptane-5-sulfonamide]
1920 | CC(C)(C)c1nc(-c2cccc(NS(=O)(=O)N3CCC4(CCCC4)C3)c2F)c(-c2ccnc(NC3CCN(S(=O)(=O)N4CCNCC4)CC3)n2)s1 [Example 176, N-(3-(2-(tert-butyl)-5-(2-((1-(piperazin-1-ylsulfonyl)piperidin-4-yl)amino)-pyrimidin-4-yl)thiazol-4-yl)-2-fluoro-phenyl)-2-azaspiro[4.4] nonane-2-sulfonamide]
1020 | CC(C)(C)c1nc(-c2cccc(NS(=O)(=O)N3CCC4(CCC4)C3)c2F)c(-c2ccnc(NC3CCN(S(=O)(=O)N4CCNCC4)CC3)n2)s1 [Example 177, N-(3-(2-(tert-butyl)-S-(2-((1-(piperazin-1-ylsulfonyl)piperidin-4-yl)amino)-pyrimidin-4-yl)thiazol-4-yl)-2-fluoro-phenyl)-6-azaspiro[3.4] octane-6-sulfonamide]
203 | CC(C)c1nc(-c2cccc(NS(=O)(=O)N3CCc4ccccc43)c2F)c(-c2ccnc(NC3CCN(S(=O)(=O)N4CCNCC4)CC3)n2)s1 [Example 178, N-(2-fluoro-3-(2-isopropyl-5-(2-((1-(piperazin-1-ylsulfonyl)piperidin-4-yl)amino)pyrimidin-4-yl)thiazol-4-yl)phenyl)indoline-1-sulfonamide]
241 | CN1CC(N(C)S(=O)(=O)N2CCC(Nc3nccc(-c4sc(C(C)(C)C)nc4-c4cccc(NS(=O)(=O)N5Cc6ccccc6C5)c4F)n3)CC2)C1 [Example 179, N-(3-(2-(tert-butyl)-5-(2-((1-(N-methyl-N-(1-methylazetidin-3-yl)sulfamoyl)-piperidin-4-yl)amino)pyrimidin-4-yl)-thiazol-4-yl)-2-fluorophenyl)-isoindoline-2-sulfonamide]
2820 | CC(C)(C)c1nc(-c2cccc(NS(=O)(=O)N3CCC4(CC4)C3)c2F)c(-c2ccnc(NC3CC4(C3)CS(=O)(=O)C4)n2)s1 [Example 180, N-(3-(2-(tert-butyl)-5-(2-((2,2-dioxido-2-thiaspiro[3.3]heptan-6-yl)amino)-pyrimidin-4-yl)thiazol-4-yl)-2-fluoro-phenyl)-5-azaspiro[2.4] heptane-5-sulfonamide]
1890 | CNCCOc1cccc2c1CCN2S(=O)(=O)Nc1cccc(-c2nc(C(C)(C)C)sc2-c2ccnc(NC3CCN(S(C)(=O)=O)CC3)n2)c1F [Example 181, N-(3-(2-(tert-butyl)-5-(2-((1-(methylsulfonyl)-piperidin-4-yl)amino)-pyrimidin-4-yl)thiazol-4-yl)-2-fluoro-phenyl)-4-(2-(methylamino)-ethoxy)-indoline-1-sulfonamide]
1190 | CC(C)(C)c1nc(-c2cccc(NS(=O)(=O)N3CCC4(CCC4)C3)c2F)c(-c2ccnc(NC3CC4(C3)CS(=O)(=O)C4)n2)s1 [Example 182, N-(3-(2-(tert-butyl)-5-(2-((2,2-dioxido-2-thiaspiro[3.3]heptan-6-yl)amino)-pyrimidin-4-yl)thiazol-4-yl)-2-fluoro-phenyl)-6-azaspiro[3.4] octane-6-sulfonamide]
133 | CNS(=O)(=O)N1CCC(Nc2nccc(-c3sc(C(C)(C)C)nc3-c3cccc(NS(=O)(=O)N4CCc5ccc(C#N)cc54)c3F)n2)CC1 [Example 183, N-(3-(2-(tert-butyl)-5-(2-((1-(N-methyl-sulfamoyl)piperidin-4-yl)amino)-pyrimidin-4-yl)thiazol-4-yl)-2~fluoro-phenyl)-6-cyano-indoline-1-sulfonamide]
1540 | CN(C)S(=O)(=O)Nc1cccc(-c2nc(C(C)(C)C)sc2-c2ccnc(NC3CC4(C3)CS(=O)(=O)C4)n2)c1F [Example 184, N-(3-(2-(tert-butyl)-5-(2-((2,2-dioxido-2-thiaspiro[3.3]heptan-6-yl)amino)-pyrimidin-4-yl)thiazol-4-yl)-2-fluoro-phenyl)dimethyl-aminesulfonamide]
55 | CC(C)(C)c1nc(-c2cccc(NS(=O)(=O)N3Cc4cccc(C#N)c4C3)c2F)c(-c2ccnc(NC3CCN(S(C)(=O)=O)CC3)n2)s1 [Example 185, N-(3-(2-(tert-butyl)-5-(2-((1-(methylsulfonyl)-piperidin-4-yl)amino)-pyrimidin-4-yl)thiazol-4-yl)-2-fluoro-phenyl)-4-cyanoisoindoline-2-sulfonamide]
1180 | CC(C)(C)c1nc(-c2cccc(NS(=O)(=O)N3CCC(F)(F)C3)c2F)c(-c2ccnc(NC3CC4(C3)CS(=O)(=O)C4)n2)s1 [Example 186, N-(3-(2-(tert-butyl)-5-(2-((2,2-dioxido-2-thiaspiro[3.3]heptan-6-yl)amino)-pyrimidin-4-yl)thiazol-4-yl)-2-fluoro-phenyl)-3,3-difluoropyrrolidine-1-sulfonamide]
194 | CC(C)(C)c1nc(-c2cccc(NS(=O)(=O)N3Cc4ccncc4C3)c2F)c(-c2ccnc(NC3CC4(C3)CS(=O)(=O)C4)n2)s1 [Example 187, N-(3-(2-(tert-butyl)-5-(2-((2,2-dioxido-2-thiaspiro[3.3]heptan-6-yl)amino)-pyrimidin-4-yl)thiazol-4-yl)-2-fluoro-phenyl)-1,3-dihydro-2H-pyrrolo[3,4-c]-pyridine-2-sulfonamide]
1660 | CN(C)CCOc1ccc2c(c1)N(S(=O)(=O)Nc1cccc(-c3nc(C(C)(C)C)sc3-c3ccnc(NC4CCN(S(C)(=O)=O)CC4)n3)c1F)CC2 [Example 188, N-(3-(2-(tert-butyl)-5-(2-((1-(methylsulfonyl)-piperidin-4-yl)amino)-pyrimidin-4-yl)thiazol-4-yl)-2-fluoro-phenyl)-6-(2-(dimethylamino)-ethoxy)-indoline-1-sulfonamide]
1550 | CN(C)Cc1ccc2c(c1)CCN2S(=O)(=O)Nc1cccc(-c2nc(C(C)(C)C)sc2-c2ccnc(NC3CCN(S(C)(=O)=O)CC3)n2)c1F [Example 189, N-(3-(2-(tert-butyl)-5-(2-((1-(methylsulfonyl)-piperidin-4-yl)amino)-pyrimidin-4-yl)thiazol-4-yl)-2-fluoro-phenyl)-5-((dimethylamino)-methyl)-indoline-1-sulfonamide]
259 | CC(C)(C)c1nc(-c2cccc(NS(=O)(=O)N3CCc4ncccc43)c2F)c(-c2ccnc(NC3CC4(C3)CS(=O)(=O)C4)n2)s1 [Example 190, N-(3-(2-(tert-butyl)-5-(2-((2,2-dioxido-2-thiaspiro[3.3]heptan-6-yl)amino)-pyrimidin-4-yl)thiazol-4-yl)-2-fluoro-phenyl)-2,3-dihydro-1H-pyrrolo[3,2-b]-pyridine-1-sulfonamide]
8620 | CCN(CC)S(=O)(=O)Nc1cccc(-c2nc(C(C)(C)C)sc2-c2ccnc(NC3CC4(C3)CS(=O)(=O)C4)n2)c1F [Example 191, N-(3-(2-(tert-butyl)-5-(2-((2,2-dioxido-2-thiaspiro[3.3]heptan-6-yl)amino)-pyrimidin-4-yl)thiazol-4-yl)-2-fluoro-phenyl)-diethylamine-sulfonamide]
